{"source": "patent US5278324A", "about": "“Water soluble derivatives of taxol” (Virginia Tech Intellectual Properties, Inc., priority 1991, dated 1994)", "key": {"[1]": {"details": "Deutsch et al. 1989; cited from earlier work"}, "[2]": {"details": "cited from earlier work"}, "cell culture": {"test_system": "cell culture", "details": "Magri and Kingston 1988; cited from earlier work"}, "[3]": {"details": "in vivo conditions; cited from earlier work"}, "[4]": {"details": "Magri and Kingston 1988; cited from earlier work"}, "[5]": {"details": "Magri and Kingston; cited from earlier work"}, "[6]": {"details": "cited from earlier work", "remark": "listed apart in the source"}, "[7]": {"test": "Water solubility by partition between 1-octanol and water, relative to taxol", "details": "for times more water soluble than taxol / solubilities greater than taxol: 1-octanol/water partition; for water solubility (in words): versus taxol or the other derivatives; for solubilities greater than taxol: Table 9 discussion", "experimental": "Water solubilities for all compounds were determined by the partition coefficient between 1-octanol and water. Octanol saturated with distilled water and distilled water saturated with octanol were used for the solubility determinations.\nTaxol's water solubility was determined by dissolving 1.6 mg of taxol in 10 ml of distilled water saturated with 1-octanol in a 60 ml separatory funnel, and 10 ml of 1-octanol saturated with distilled water was then added. The funnel was shaken, and allowed to stand for about 30 minutes until the organic and aqueous phases separated. UV absorption measurements at 228 nm were made of the aqueous layer and/or octanol layer, with the octanol layer being diluted 5 times before measurement."}, "[8]": {"test": "Biological testing of 2'-[(3-sulfo-1-oxopropyl)oxy]taxol sodium salt"}, "P-388": {"test_system": "P-388", "details": "compared with taxol; cited from earlier work"}, "[9]": {"test": "Stability of 2'-γ-aminobutyryltaxol formate (proton NMR and TLC)", "type": "physicochemical", "details": "after a few hours", "description": "2'-γ-aminobutyryltaxol formate was synthesized by coupling taxol with N-carbobenzyloxy (CBZ) -γ-aminobutyric acid followed by deprotection of the amine. Taxol was reacted with N-CBZ-γ- aminobutyric acid using dicyclohexyl-carbodiimide (DCC) as the coupling agent. The resulting 2'-NCBZ-γ-aminobutyryl taxol was produced in 75% yield after purification via preparative TLC with silica gel and 3/2 hexane/ethyl acetate. […] Deprotection of the 2'-N-CBZ-γ-aminobutyryltaxol was effected using 5% Pd/C as a catalyst and formic acid as a hydrogen source. […] NMR confirmed the synthesis of the 2'-γ-aminobutyryl taxol formate. […] This instability precluded further consideration of 2'-γ-amino-butyryltaxol formate as a prodrug form of taxol."}, "[10]": {"test": "Aqueous solubility (statements in words)", "type": "physicochemical", "details": "versus the neutral form"}, "[11]": {"test_system": "acute leukemia and melanoma", "details": "preliminary studies; cited from earlier work"}, "[12]": {"test_system": "drug-refractory ovarian cancer", "details": "McGuire et al. 1989; cited from earlier work"}, "tubulin": {"test_system": "tubulin", "details": "cited from earlier work"}, "several tumor systems": {"test_system": "several tumor systems", "details": "background statement; cited from earlier work"}, "[13]": {"details": "cited from earlier work", "remark": "listed apart in the source"}}, "note": "Counter-ions that a name gives are not always drawn.", "data": [{"molecule": "CC(=O)O[C@H]1C(=O)[C@@]2(C)[C@H]([C@H](OC(=O)c3ccccc3)[C@]3(O)C[C@H](OC(=O)[C@H](OC(=O)CCCC(=O)NCCCN(C)C)[C@@H](NC(=O)c4ccccc4)c4ccccc4)C(C)=C1C3(C)C)[C@]1(OC(C)=O)CO[C@@H]1C[C@@H]2O", "values": [{"measurement": "antitumor activity", "setting": "[1]", "result": "good solubility and bioactivity"}, {"measurement": "solubility", "setting": "[2]; Deutsch et al. 1989", "result": "good solubility"}]}, {"molecule": "CC(=O)O[C@H]1C(=O)[C@]2(C)[C@@H](OC(C)=O)C[C@H]3OC[C@@]3(OC(C)=O)[C@H]2[C@H](OC(=O)c2ccccc2)[C@]2(O)C[C@H](OC(=O)[C@H](OC(C)=O)[C@@H](NC(=O)c3ccccc3)c3ccccc3)C(C)=C1C2(C)C", "note": "[2',7-diacetyltaxol]", "values": [{"measurement": "activity in a cell culture bioassay", "setting": "cell culture", "result": "both showed activity in a cell culture bioassay"}, {"measurement": "hydrolysis of acyl substituents at the 2' position", "setting": "[3]", "result": "readily hydrolyzed under in vivo conditions"}]}, {"molecule": "CC(=O)O[C@H]1C(=O)[C@@]2(C)[C@H]([C@H](OC(=O)c3ccccc3)[C@]3(O)C[C@H](OC(=O)[C@H](O[Si](C)(C)C(C)(C)C)[C@@H](NC(=O)c4ccccc4)c4ccccc4)C(C)=C1C3(C)C)[C@]1(OC(C)=O)CO[C@@H]1C[C@@H]2O", "note": "[2'-(t-butyldimethylsilyl) taxol]", "values": [{"measurement": "biological activity", "setting": "[4]", "result": "essentially inactive"}]}, {"molecule": "CC(=O)O[C@H]1C(=O)[C@@]2(C)[C@H]([C@H](OC(=O)c3ccccc3)[C@]3(O)C[C@H](OC(=O)[C@H](OC(=O)CCN)[C@@H](NC(=O)c4ccccc4)c4ccccc4)C(C)=C1C3(C)C)[C@]1(OC(C)=O)CO[C@@H]1C[C@@H]2O", "note": "[2'-(β-alanyl)taxol]", "values": [{"measurement": "activity in vivo and in vitro", "setting": "[5]", "result": "active in vivo and in vitro"}, {"measurement": "stability", "setting": "[6]; Magri and Kingston", "result": "unstable"}]}, {"molecule": "CC(=O)O[C@H]1C(=O)[C@@]2(C)[C@H]([C@H](OC(=O)c3ccccc3)[C@]3(O)C[C@H](OC(=O)[C@H](OC(=O)CCS(=O)(=O)O)[C@@H](NC(=O)c4ccccc4)c4ccccc4)C(C)=C1C3(C)C)[C@]1(OC(C)=O)CO[C@@H]1C[C@@H]2O", "note": "[2'-[(3-sulfo-1-oxopropyl)oxy]taxol sodium salt]", "values": [{"measurement": "times more water soluble than taxol", "setting": "[7]", "result": 210, "unit": "times"}, {"measurement": "water solubility (in words)", "setting": "[7]; listed as 2'-[(3-sulfo-l- oxopropyl)oxy]taxol sodium salt, sodium salt", "result": "improved water solubility"}, {"measurement": "water solubility (in words)", "setting": "[7]; listed as 2'-acryloyltaxol derivative, sodium salt", "result": "highest water solubility"}, {"measurement": "bioactivity", "setting": "[8]", "result": "bioactive"}]}, {"molecule": "CC(=O)O[C@H]1C(=O)[C@@]2(C)[C@H]([C@H](OC(=O)c3ccccc3)[C@]3(O)C[C@H](OC(=O)[C@H](OC(C)=O)[C@@H](NC(=O)c4ccccc4)c4ccccc4)C(C)=C1C3(C)C)[C@]1(OC(C)=O)CO[C@@H]1C[C@@H]2O", "note": "[2'-acetyltaxol]", "values": [{"measurement": "activity in a cell culture bioassay", "setting": "cell culture", "result": "both showed activity in a cell culture bioassay"}, {"measurement": "hydrolysis of acyl substituents at the 2' position", "setting": "[3]", "result": "readily hydrolyzed under in vivo conditions"}]}, {"molecule": "CC(=O)O[C@H]1C(=O)[C@@]2(C)[C@H]([C@H](OC(=O)c3ccccc3)[C@]3(O)C[C@H](OC(=O)[C@H](OC(=O)CCC(=O)O)[C@@H](NC(=O)c4ccccc4)c4ccccc4)C(C)=C1C3(C)C)[C@]1(OC(C)=O)CO[C@@H]1C[C@@H]2O", "note": "[2'-succinyltaxol]", "values": [{"measurement": "P-388 in vivo activity", "setting": "P-388", "result": "much diminished P-388 in vivo activity as compared with taxol"}]}, {"molecule": "CC(=O)O[C@H]1C(=O)[C@@]2(C)[C@H]([C@H](OC(=O)c3ccccc3)[C@]3(O)C[C@H](OC(=O)[C@H](OC(=O)CCC(=O)NCCS(=O)(=O)O)[C@@H](NC(=O)c4ccccc4)c4ccccc4)C(C)=C1C3(C)C)[C@]1(OC(C)=O)CO[C@@H]1C[C@@H]2O", "note": "[2'-{[4-((2-sulfoethyl)amino)-1,4-dioxo-butyl]oxy}taxol sodium salt]", "values": [{"measurement": "times more water soluble than taxol", "setting": "[7]", "result": 191, "unit": "times"}, {"measurement": "solubilities greater than taxol", "setting": "[7]", "result": "more than 100 times"}, {"measurement": "water solubility (in words)", "setting": "[7]", "result": "much greater water solubility than the 3-amino-1-sulfopropionic acid derivative of 2'-succinyltaxol"}]}, {"molecule": "CC(=O)O[C@H]1C(=O)[C@@]2(C)[C@H]([C@H](OC(=O)c3ccccc3)[C@]3(O)C[C@H](OC(=O)[C@H](OC(=O)CCC(=O)NCCCS(=O)(=O)O)[C@@H](NC(=O)c4ccccc4)c4ccccc4)C(C)=C1C3(C)C)[C@]1(OC(C)=O)CO[C@@H]1C[C@@H]2O", "note": "[2'-{[4-((3-sulfopropyl)-amino)-1,4-dioxobutyl]oxy}taxol sodium salt]", "values": [{"measurement": "times more water soluble than taxol", "setting": "[7]", "result": 118, "unit": "times"}, {"measurement": "solubilities greater than taxol", "setting": "[7]", "result": "more than 100 times"}]}, {"molecule": "CC(=O)O[C@H]1C(=O)[C@@]2(C)[C@H]([C@H](OC(=O)c3ccccc3)[C@]3(O)C[C@H](OC(=O)[C@H](OC(=O)CCCN)[C@@H](NC(=O)c4ccccc4)c4ccccc4)C(C)=C1C3(C)C)[C@]1(OC(C)=O)CO[C@@H]1C[C@@H]2O", "note": "[2'-γ-aminobutyryltaxol formate, 2'-γ-amino-butyryltaxol formate]", "values": [{"measurement": "stability (proton NMR and TLC)", "setting": "[9]", "result": "decomposed back to taxol"}, {"measurement": "stability in methanol solution", "setting": "[9]; methanol solution", "result": "unstable in methanol solution and decomposed back to taxol after a few hours"}, {"measurement": "water solubility of formate salt", "setting": "[10]", "result": "more water soluble than the neutral form"}]}, {"molecule": "CC(=O)O[C@H]1C(=O)[C@@]2(C)[C@H]([C@H](OC(=O)c3ccccc3)[C@]3(O)C[C@H](OC(=O)[C@H](O)[C@@H](NC(=O)c4ccccc4)c4ccccc4)C(C)=C1C3(C)C)[C@]1(OC(C)=O)CO[C@@H]1C[C@@H]2O", "note": "[Taxol, taxol]", "values": [{"measurement": "Relative Solubility (water solubility relative to taxol)", "setting": "[7]", "result": 1}, {"measurement": "activity in acute leukemia and melanoma", "setting": "[11]", "result": "marginal activity in acute leukemia and melanoma"}, {"measurement": "activity against drug-refractory ovarian cancer", "setting": "[12]", "result": "active agent against drug-refractory ovarian cancer"}, {"measurement": "effect on microtubule formation", "setting": "tubulin", "result": "promotes formation of the microtubules"}, {"measurement": "effect on depolymerization of tubulin", "setting": "tubulin; mitotic spindle microtubules", "result": "prevents depolymerization of the tubulin"}, {"measurement": "activity in tumor systems", "setting": "several tumor systems", "result": "has shown activity in several tumor systems"}, {"measurement": "toxic effects in phase 1 clinical trials", "setting": "[13]", "result": "did not show excessive toxic effects"}, {"measurement": "stability in base", "setting": "[6]; base", "result": "readily hydrolyzed in base"}, {"measurement": "water solubility of taxol", "setting": "[2]; background statement", "result": "low water solubility"}]}, {"molecule": "CC[C@]1(O)C[C@@H]2CN(CCc3c([nH]c4ccccc34)[C@@](C(=O)OC)(c3cc4c(cc3OC)N(C)[C@H]3[C@@](O)(C(=O)OC)[C@H](OC(C)=O)[C@]5(CC)C=CCN6CC[C@]43[C@@H]65)C2)C1", "note": "[vinblastine]", "values": [{"measurement": "effect on microtubule formation", "setting": "tubulin", "result": "prevent microtubule formation"}]}]}
